One assay deals with T1, human HDAC4 (Homo sapiens, UniProt P56524).
T1 construct: made in house; host or cells: 293T cells (transient transfection, anti-FLAG immunoprecipitation, FLAG peptide elution)
Nature of the assay: HDAC-inhibiting activity, coumarin-labeled acetylated histone peptide assay. The format is biochemical. As to conditions: human HDAC4 from transfected 293T cells; 37° C., 30 minutes; read-out: HDAC-inhibiting activity IC50 HDAC4.

The subject of assay [1] is brain tumor cell line SF-539. Briefly: Human cancer cell line panel, proliferation (sulforhodamine B). The following applies: SF-539, 2 days of cultivation; read-out: 50% inhibitory concentration, proliferation. The format is cell-based. From the text: (§1) The characteristics of the human cancer cell proliferation-inhibiting activity of the compounds of the present invention were examined by the “method of evaluating the mechanisms of action of compounds using a panel of human cancer cell lines” as proposed by Yamori et al. (cf. Gan to Kagaku Ryoho (Cancer and Chemotherapy) 29 Suppl. II (2002) and Cancer Chemother. Pharmacol. 52 Suppl. I, S74-79 (2003)).
(§2) This system includes […] (7 lung cancer, 6 stomach cancer, 5 colon cancer, 5 ovarian cancer, 6 brain tumor, […], 2 kidney cancer and 2 prostate cancer cell lines as well as one melanoma line) and the method comprises measuring the in vitro drug susceptibilities of those cancer cell lines and expressing the differences in drug susceptibility among the respective cancer cell lines as a fingerprint. […] By utilizing this property, it is possible to estimate the mechanisms of action of a compound. The above method is also characterized in that an anticancer substance showing new and unique mechanisms of action different from those of the existing anticancer agents can be selected.
(§3) Cancer cells of each cell line are sowed onto a 96-well plate, a sample solution is added on the next day and, after 2 days of cultivation, the cell proliferation is measured by colorimetry using sulforhodamine B. The deviations in effective concentration for the respective cancer cell lines from the mean effective drug concentration for the 39 cancer cell lines subjected to measurement are calculated and shown in the form a fingerprint.

For assay [2], the system named is breast cancer cell line BSY-1. The description is as above. It counts as cell-based. As to conditions: BSY-1, 2 days of cultivation; read-out: 50% inhibitory concentration, proliferation.
Excerpt: as §1, §2, §3

Assay [3] deals with ovarian cancer cell line OVCAR-5. The assay is described as above. The following applies: OVCAR-5, 2 days of cultivation; read-out: 50% inhibitory concentration, proliferation. The format is cell-based.
Excerpt: as §1, §2, §3

For assay [4], the system named is prostate cancer cell line DU-145. Described as above. The format is cell-based. The following applies: DU-145, 2 days of cultivation; read-out: 50% inhibitory concentration, proliferation.
Excerpt: as §1, §2, §3

The subject of assay [5] is ovarian cancer cell line OVCAR-8. The description is as above. The format is cell-based. As to conditions: OVCAR-8, 2 days of cultivation; read-out: 50% inhibitory concentration, proliferation.
Excerpt: as §1, §2, §3

In assay [6] the test system is colon cancer cell line HCT-116. Described as above. It counts as cell-based. The following applies: HCT-116, 2 days of cultivation; read-out: 50% inhibitory concentration, proliferation.
Excerpt: as §1, §2, §3

Assay [7] concerns lung cancer cell line DMS114. The assay is described as above. As to conditions: DMS114, 2 days of cultivation; read-out: 50% inhibitory concentration, proliferation. It counts as cell-based.
Excerpt: as §1, §2, §3

Assay [8] deals with lung cancer cell line NCI-H522. Described as above. It counts as cell-based. The following applies: NCI-H522, 2 days of cultivation; read-out: 50% inhibitory concentration, proliferation.
Excerpt: as §1, §2, §3

In assay [9] the test system is lung cancer cell line NCI-H460. The description is as above. It counts as cell-based. As to conditions: NCI-H460, 2 days of cultivation; read-out: 50% inhibitory concentration, proliferation.
Excerpt: as §1, §2, §3

Assay [10] relates to lung cancer cell line NCI-H23. Described as above. The format is cell-based. The following applies: NCI-H23, 2 days of cultivation; read-out: 50% inhibitory concentration, proliferation.
Excerpt: as §1, §2, §3

Assay [11] has as its system lung cancer cell line NCI-H226. Described as above. The format is cell-based. The following applies: NCI-H226, 2 days of cultivation; read-out: 50% inhibitory concentration, proliferation.
Excerpt: as §1, §2, §3

Assay [12] concerns lung cancer cell line A549. Described as above. The format is cell-based. The following applies: A549, 2 days of cultivation; read-out: 50% inhibitory concentration, proliferation.
Excerpt: as §1, §2, §3

Assay [13] concerns human wild type p21 promoter. Nature of the assay: p21 promoter assay (luciferase) in MFLL-9 cells. The format is cell-based. The following applies: 20 hours, concentration giving 1000% luminescence relative to negative control (100%).

T1 sequence (P56524 whole entry): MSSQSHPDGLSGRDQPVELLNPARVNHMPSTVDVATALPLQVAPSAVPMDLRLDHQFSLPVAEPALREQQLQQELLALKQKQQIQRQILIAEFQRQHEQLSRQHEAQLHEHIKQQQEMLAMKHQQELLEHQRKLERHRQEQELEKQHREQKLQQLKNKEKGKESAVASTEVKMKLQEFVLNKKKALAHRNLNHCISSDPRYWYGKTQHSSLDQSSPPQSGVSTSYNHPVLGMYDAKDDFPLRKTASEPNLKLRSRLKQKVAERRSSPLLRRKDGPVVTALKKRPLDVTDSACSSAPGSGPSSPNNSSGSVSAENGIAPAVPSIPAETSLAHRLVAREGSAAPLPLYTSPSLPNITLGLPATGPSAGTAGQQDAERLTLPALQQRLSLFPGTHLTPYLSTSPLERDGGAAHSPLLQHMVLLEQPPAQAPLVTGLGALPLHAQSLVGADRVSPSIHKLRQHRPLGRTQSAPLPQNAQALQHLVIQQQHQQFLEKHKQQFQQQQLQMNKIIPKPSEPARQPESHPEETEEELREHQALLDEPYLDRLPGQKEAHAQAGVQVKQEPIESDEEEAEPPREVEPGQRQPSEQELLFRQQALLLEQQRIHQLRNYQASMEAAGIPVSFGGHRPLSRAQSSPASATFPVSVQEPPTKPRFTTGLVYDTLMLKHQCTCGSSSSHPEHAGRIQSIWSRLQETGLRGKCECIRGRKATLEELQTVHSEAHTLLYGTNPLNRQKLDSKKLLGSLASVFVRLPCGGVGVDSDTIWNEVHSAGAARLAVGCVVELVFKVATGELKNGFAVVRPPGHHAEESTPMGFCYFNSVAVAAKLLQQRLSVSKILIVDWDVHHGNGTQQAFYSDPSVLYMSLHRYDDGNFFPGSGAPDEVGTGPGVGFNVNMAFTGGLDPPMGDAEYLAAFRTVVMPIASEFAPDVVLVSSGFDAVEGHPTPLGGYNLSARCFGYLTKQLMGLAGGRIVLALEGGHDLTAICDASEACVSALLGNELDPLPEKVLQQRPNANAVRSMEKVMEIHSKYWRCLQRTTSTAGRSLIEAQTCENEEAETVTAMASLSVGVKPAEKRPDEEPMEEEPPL
T1 sequence (O15379 whole entry, further chain): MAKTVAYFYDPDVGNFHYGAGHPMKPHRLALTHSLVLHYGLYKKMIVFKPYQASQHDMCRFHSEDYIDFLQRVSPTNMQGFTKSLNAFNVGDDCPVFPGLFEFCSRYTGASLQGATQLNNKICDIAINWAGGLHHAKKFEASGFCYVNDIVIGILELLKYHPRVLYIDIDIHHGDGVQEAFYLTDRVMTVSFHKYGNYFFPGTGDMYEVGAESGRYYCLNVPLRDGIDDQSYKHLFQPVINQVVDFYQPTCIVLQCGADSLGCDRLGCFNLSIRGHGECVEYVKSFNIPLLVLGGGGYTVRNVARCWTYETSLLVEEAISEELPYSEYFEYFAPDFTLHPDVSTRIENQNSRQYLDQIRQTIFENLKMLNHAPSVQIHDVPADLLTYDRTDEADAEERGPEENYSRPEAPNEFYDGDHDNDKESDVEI

For `CC1(C)NC(=O)[C@H](CCCCCSCc2ccncc2)NC(=O)[C@H]2CCCN2C(=O)[C@H](Cc2ccccc2)NC1=O` [Ky-26, cyclo(-L-Am7(4-pyridylmethyl)-Aib-L-Phe-D-Pro-)], the IC50 at human HDAC4 was 25 nM; in assay [1], not above 100 nM; in [2], not above 100 nM; in assay [3], not above 100 nM; in [4] it was not above 100 nM; in assay [5] it was not above 100 nM. For the same compound, the IC50 in assay [6] is not above 100 nM; in [7], not above 100 nM; in assay [8], not above 10 nM; in assay [9] it was not above 100 nM; in assay [10], not above 100 nM; in assay [11], not above 100 nM. The IC50 in [12] is not above 100 nM. In assay [13], the “p21 promoter activity EC1000” value came out at 0.010 µM.
As for `CC(=O)CSCCCCC[C@@H]1NC(=O)[C@H]2CCCN2C(=O)[C@H](Cc2ccccc2)NC(=O)C(C)(C)NC1=O` [Ky-72, cyclo(-L-Am7(acetonyl)-Aib-L-Phe-D-Pro-)], the IC50 is 1600 nM at human HDAC4; not above 100 nM in [1]; not above 100 nM in assay [2]; not above 100 nM in assay [3]; not above 100 nM in assay [4]; not above 100 nM in assay [5]. In addition, the IC50 is not above 10 nM in assay [6]; not above 100 nM in assay [7]; not above 10 nM in [8]; not above 100 nM in [9]; not above 100 nM in [10]; not above 100 nM in assay [11]. In [12], the IC50 is not above 100 nM. Besides, the “p21 promoter activity EC1000” value in assay [13] was found to be 0.031 µM.

Source of the values: patent publication US8158587B2, “Compound having histone deacetylase-inhibiting activity, and pharmaceutical composition comprising the compound as an active ingredient” (Kyushu Institute of Technology, priority 2006, dated 2012).
